Test results as given in US20090246276A1, “Pharmaceutical Compositions” (priority 2008, published 2009).
Counter-ions that a name gives are not always drawn. Like-named read-outs stand apart in the source and are kept apart here.

Assays:
[1] = test system: patients diagnosed with MDD; settings: citalopram non-responders, cited from earlier work
[2] = Solubility (37° C.) in 0.1N HCl, pH 4.5, pH 6.8; assay type: physicochemical; design: Solubility (37° C.): unit not given here; settings: for Solubility (37° C.): hydrochloride; for solubility: 37 °C
[3] = In-vitro dissolution, 900 ml medium (0.1N HCl, pH 4.5 acetate buffer, pH 6.8 or pH 7.5 phosphate buffer), USP Apparatus 1, 75 rpm, 37° C.; assay type: physicochemical; settings: for % Released (Bi-layer Tablets): Example 16 coated bi-layer tablet; for % Released (Homogenous Tablets): Example 19 tablet; for % Released: Example 17 tablet
Experimental: The dissolution profile of the above pharmaceutical composition was determined under the dissolution conditions described below in Tables 1A, 1B, and 1C.

CC(NC(C)(C)C)C(=O)c1cccc(Cl)c1 (stereo not drawn) [Bupropion, bupropion]
remission rate ([1]; bupropion added on to the existing citalopram treatment): 30% | remission rate ([1]; switched to bupropion): 20%

CC(NC(C)(C)C)C(=O)c1cccc(Cl)c1 (stereo not drawn) [Bupropion HCl, bupropion hydrochloride]
Solubility (37° C.) ([2]; 0.1N HCl): 416 | Solubility (37° C.) ([2]; pH 4.5): 437 | Solubility (37° C.) ([2]; pH 6.8): 437 | % Released (Bi-layer Tablets) ([3]; 0.1N HCl, 1 hr): 16.36% | % Released (Bi-layer Tablets) ([3]; 0.1N HCl, 2 hr): 33.56% | % Released (Bi-layer Tablets) ([3]; 0.1N HCl, 3 hr): 49.54% | % Released (Bi-layer Tablets) ([3]; 0.1N HCl, 4 hr): 65.00% | % Released (Bi-layer Tablets) ([3]; 0.1N HCl, 5 hr): 79.63% | % Released (Bi-layer Tablets) ([3]; 0.1N HCl, 6 hr): 88.97% | % Released (Bi-layer Tablets) ([3]; 0.1N HCl, 7 hr): 94.82% | % Released (Bi-layer Tablets) ([3]; 0.1N HCl, 8 hr): 97.06% | % Released (Homogenous Tablets) ([3]; 0.1N HCl, 1 hr): 16.63% | % Released (Homogenous Tablets) ([3]; 0.1N HCl, 2 hr): 39.40% | % Released (Homogenous Tablets) ([3]; 0.1N HCl, 3 hr): 60.60% | % Released (Homogenous Tablets) ([3]; 0.1N HCl, 4 hr): 78.36% | % Released (Homogenous Tablets) ([3]; 0.1N HCl, 5 hr): 90.30% | % Released (Homogenous Tablets) ([3]; 0.1N HCl, 6 hr): 96.38% | % Released (Homogenous Tablets) ([3]; 0.1N HCl, 7 hr): 99.14% | % Released (Homogenous Tablets) ([3]; 0.1N HCl, 8 hr): 100.26%

OCCOCCN1CCN(C2=Nc3ccccc3Sc3ccccc32)CC1 [Quetiapine Fumarate, quetiapine fumarate]
solubility ([2]; 0.1N HCl, simulated gastric fluid): 41000 µg/mL | solubility ([2]; pH 4.5, aqueous buffer, pH 4.5): 3000 µg/mL | solubility ([2]; pH 6.8, aqueous buffer, pH 6.8): 300 µg/mL | % Released ([3]; 0.1N HCl, 1 hr): 18% | % Released ([3]; 0.1N HCl, 2 hr): 39% | % Released ([3]; 0.1N HCl, 4 hr): 69% | % Released ([3]; 0.1N HCl, 8 hr): 98% | % Released ([3]; 0.1N HCl, 12 hr): 97% | % Released ([3]; 0.1N HCl, 16 hr): 96% | % Released ([3]; pH 6.8 phosphate buffer, 1 hr): 2% | % Released ([3]; pH 6.8 phosphate buffer, 2 hr): 10% | % Released ([3]; pH 6.8 phosphate buffer, 4 hr): 41% | % Released ([3]; pH 6.8 phosphate buffer, 8 hr): 76% | % Released ([3]; pH 6.8 phosphate buffer, 12 hr): 93% | % Released ([3]; pH 6.8 phosphate buffer, 16 hr): 95%
